Data: US20120184548A1, “CARBOXYLIC ACID ARYL AMIDES” (priority 2011, published 2012)

Tests used:
[1] = test system: SW620 human colon cancer cells; assay: SW620 Cell Viability Assay (CellTiter-Glo); type: cell-based; conditions: SW-620, 96 h, 4 days incubation, read-out: Cellular EC50 SW620
Description: 1. Cell Plate Preparation: SW620 human colon cancer cells (known to express DYRK1B), obtained from ATCC, were seeded into 96-well plates at […] in 50 μL of media. • Harvested the required number of cells (counts & viability determined by Guava Viacount). • Centrifuge cells to pellet and removed supernant. • Resuspended in growth media (50 μL/well) & pipetted thoroughly to break up clumps. • Setup for ˜100 wells/plate, therefore, VT=5 mL/plate @ 1.2×10^5 cells/mL. 1A. Some cells (S-) were allowed to attach for 24 hrs, serum starved for 48 hrs, and then followed with treatments of test compound.
Test Compound solution was prepared in regular corresponding media supplemented with serum
2. Test Compound Preparation: Test compounds were solubilized in either DMSO or media and prepared at various stock concentrations. • All compounds were incubated at 37° C. for 30 minutes and vortexed. • (5 mM stocks of test compound were prepared for non-soluble drugs)
3. Test Compound Plate Preparation:
• The 10 mM test compound stock was diluted to a concentration of 100× the final Cmax concentration. • Then the test compound stock is diluted 50-fold in media and/or second test compound for a final Cmax concentration in the test compound plate. • The Cmax in the test compound plate (2% DMSO) is 2-fold higher than the final Cmax in the cell plate (60 uL titrations were 1:3). 4. Viability Assay: This assay was performed as follows: • Transfer 50 μL of test compound solution per well from the test compound plate onto the cell plate prepared in Step #1. • Mix the plate with treated cells by pipetting up and down three times with 200 μL multi-channel pipet. • Incubate the cells in 5% CO2 incubator @ 37° C. for 4 days. • Run the CellTiter-Glo™ Luminescent Cell Viability Assay. The results of this assay, given as EC50 values, indicate the concentration of test compound that inhibits tumor cell proliferation by 50%.

Human DYRK1A = biological target: T1, Human DYRK1A (Homo sapiens, UniProt Q13627); assay: DYRK1A Kinase TR-FRET (IMAP-Tb) Assay; type: biochemical; conditions: for IC50: TR-FRET, ATP 70 μM, 37° C. for 60 minutes, averages of multiple runs, read-out: Enzyme IC50 DYRK1A; for inhibition at 10 µM: 10 μM test compound, reported where IC50 was not determined, read-out: Enzyme DYRK1A % inhibition at 10 μM test compound concentration
T1 construct: purchased Invitrogen PV3997
From the text: The kinase TR-FRET (IMAP-Tb) assay uses a fluorescence labeled substrate peptide in the kinase reaction. Upon phosphorylation by the kinase, phosphopeptide is produced, which will be detected by the binding solution provided in IMAP TR-FRET binding kit. After the completion of the kinase reaction, the reaction will be stopped by adding the binding solution containing terbium tracer. This tracer is immobilized on the surface of the IMAP beads, which also contain metal ions on the beads that bind to the phospho-groups of the products. Thus the phosphorylated product of the reaction can enter into close proximity to the tracer, producing resonance energy transfer. Due to the long lifetime of terbium (Tb) fluorescence the detection can be run in time resolved mode, which virtually eliminates fluorescence interference from assay components or compounds.
The TR-FRET signal measurement from this assay, given as an IC50 measurement, is a measure of a test compound's ability to interfere with the phosphorylation of the peptide substrate, that is it inhibits the phosphorylation of the substrate peptide by DYRK1A, and is thus a measure of the test compound's ability to inhibit the activity of DYRK1A.
1. Human DYRK1A: from Invitrogen. Part # PV3997
2. Substrate Peptide: […]
3. IMAP TR-FRET IPP Explorer Kit: from Molecular Devices. Part # R8157 4. Kinase Assay Buffer (KAB): 10 mM HEPES pH 7.0, 50 mM NaCl, 5 mM MgCl2, 1 mM DTT, 1 mM NaVO4, 200 μg/mL BSA (0.02%) 5. Assay Plate: Remp polypropylene clear 384-well microplate. […] Detection Plate: Costa black 384-well microplate. […] Transfer 1.5 μL of 20× compound solution to each well of an assay plate. 2. Add to each well 22.5 μL of KAB Buffer. 3. Add to each well 3 μL of the solution of DYRK1A and ATP. […] Add to each well 3 μL of the substrate peptide. The assay concentration is 1.0 μM 5. Incubate the assay plates at 37° C. for 60 minutes. 6. Add 18 μL of Detection Solution (1:800 diluted Progress bead stock, 1:400 diluted Tb stock, 80% Buffer A, and 20% Buffer B) into each well of detection plates. 7. Transfer 6 μL of assay solution from the assay plate to the detection plate. 8. Shake detection plates for 30 minutes. 9. Read plates in Envision with wavelength set at excitation 340 nm for Tb, emission 490 nm, and […].

Human DYRK1B = biological target: T2, Human DYRK1B (Homo sapiens, UniProt Q9Y463); assay: DYRK1B Kinase TR-FRET (IMAP-Tb) Assay; type: biochemical; conditions: for IC50: TR-FRET, ATP 70 μM, 37° C. for 60 minutes, averages of multiple runs, read-out: Enzyme IC50 DYRK1B
T2 construct: purchased Invitrogen PR8350B (former PV4649)
T2 sequence (Q9Y463 whole entry): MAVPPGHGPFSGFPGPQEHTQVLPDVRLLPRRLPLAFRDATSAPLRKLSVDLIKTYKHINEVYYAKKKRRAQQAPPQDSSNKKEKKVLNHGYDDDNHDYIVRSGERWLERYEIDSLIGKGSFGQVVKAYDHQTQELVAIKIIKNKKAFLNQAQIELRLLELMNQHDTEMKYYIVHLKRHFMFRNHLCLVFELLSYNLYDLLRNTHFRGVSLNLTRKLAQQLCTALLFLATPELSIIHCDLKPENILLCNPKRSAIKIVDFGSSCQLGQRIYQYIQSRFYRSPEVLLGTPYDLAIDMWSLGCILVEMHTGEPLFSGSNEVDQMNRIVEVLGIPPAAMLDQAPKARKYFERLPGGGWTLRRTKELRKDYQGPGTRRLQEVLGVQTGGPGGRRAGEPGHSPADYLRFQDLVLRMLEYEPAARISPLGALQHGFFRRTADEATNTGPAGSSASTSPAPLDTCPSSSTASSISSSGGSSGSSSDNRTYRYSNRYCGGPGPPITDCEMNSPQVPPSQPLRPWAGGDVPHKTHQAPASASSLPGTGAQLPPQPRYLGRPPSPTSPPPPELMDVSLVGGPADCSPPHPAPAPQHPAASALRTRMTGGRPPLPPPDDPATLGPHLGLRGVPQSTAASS
From the text: The kinase TR-FRET (IMAP-Tb) assay uses a fluorescence labeled substrate peptide in the kinase reaction. Upon phosphorylation by the kinase, phosphopeptide is produced, which will be detected by the binding solution provided in IMAP TR-FRET binding kit. After the completion of the kinase reaction, the reaction will be stopped by adding the binding solution containing terbium tracer. This tracer is immobilized on the surface of the IMAP beads, which also contain metal ions on the beads that bind to the phospho-groups of the products. Thus the phosphorylated product of the reaction can enter into close proximity to the tracer, producing resonance energy transfer. Due to the long lifetime of terbium (Tb) fluorescence the detection can be run in time resolved mode, which virtually eliminates fluorescence interference from assay components or compounds. […] IC50 is the amount of test compound that inhibits 50% of the activity of DYRK1B in this assay. […] 1. Human DYRK1B: from Invitrogen. Part # PR8350B (former PV4649) 2. Substrate Peptide: RRRFRPASPLRGPPK 3. IMAP TR-FRET IPP Explorer Kit: from Molecular Devices. Part # R8157 4. Kinase Assay Buffer (KAB): 10 mM HEPES pH 7.0, 50 mM NaCl, 5 mM MgCl2, 1 mM DTT, 1 mM NaVO4, 200 μg/mL BSA (0.02%) 5. Assay Plate: Remp polypropylene clear 384-well microplate. Cat#23490-102 6. Detection Plate: Costa black 384-well microplate. Cat #3710 Assay Procedure: This assay was performed as follows: 1. Transfer 1.5 μL of 20× compound solution to each well of an assay plate. 2. Add to each well 22.5 μL of KAB Buffer. 3. Add to each well 3 μL of the solution of DYRK1B and ATP. […] Add to each well 3 μL of the substrate peptide. […] Incubate the assay plates at 37° C. for 60 minutes. 6. Add 18 μL of Detection Solution (1:800 diluted Progress bead stock, 1:400 diluted Tb stock, 80% Buffer A, and 20% Buffer B) into each well of detection plates. 7. Transfer 6 μL of assay solution from the assay plate to the detection plate. 8. Shake detection plates for 30 minutes. 9. Read plates in Envision with wavelength set at excitation 340 nm for Tb, emission 490 nm, and […]. 10. Calculation: TR-FRET Signal=(Reading at […])×2000000

Row | Structure (SMILES) | EC50 [1] [nM] | IC50 (Human DYRK1A) [nM] | IC50 (Human DYRK1B) [nM] | inhibition at 10 µM (Human DYRK1A) [%] | inhibition at 10 µM (Human DYRK1B; 10 μM test compound, reported where IC50 was not determined, read-out: Enzyme DYRK1B % inhibition at 10 μM test compound concentration) [%]
1 | COCCOc1cc2cc(C(=O)Nc3cc(C(=O)N[C@H](CCN)c4ccccc4)ccc3C)c(=O)[nH]c2cc1OC (single isomer, unassigned) [Example 58] | 4040 | 9 | 29 |  | 
2 | COc1cc2cc(C(=O)Nc3cc(C(=O)NC(CCN)c4ccccc4)ccc3C)c(=O)[nH]c2cc1OC (stereo in doubt) [Example 47, 6,7-Dimethoxy-2-oxo-1,2-dihydro-quinoline-3-carboxylic acid [5-((R)-3-amino-1-phenyl-propylcarbamoyl)-2-methyl-phenyl]-amide] | > 3000 | 85.5 | 14 |  | 
3 | COC(=O)c1ccc(C)c(NC(=O)c2cc3cc(OC)c(OC)cc3[nH]c2=O)c1 [Example 17, 3-[(6,7-Dimethoxy-2-oxo-1,2-dihydro-quinoline-3-carbonyl)-amino]-4-methyl-benzoic acid methyl ester] | > 10000 |  | 560 |  | 
4 | COC(=O)c1ccc(Cl)c(NC(=O)c2cc3cc(OC)c(OC)cc3[nH]c2=O)c1 [Example 19, 4-Chloro-3-[(6,7-dimethoxy-2-oxo-1,2-dihydro-quinoline-3-carbonyl)-amino]-benzoic acid methyl ester] | > 10000 |  |  | 44 | 47
5 | COCCOc1cc2cc(C(=O)Nc3cc(C(=O)OC)ccc3C)c(=O)[nH]c2cc1OC [Example 23, 3-{[7-Methoxy-6-(2-methoxy-ethoxy)-2-oxo-1,2-dihydro-quinoline-3-carbonyl]-amino}-4-methyl-benzoic acid methyl ester] | > 10000 | 262 | 440 |  | 
6 | COc1cc2cc(C(=O)Nc3cc(C(=O)NC(CN)c4ccccc4)ccc3C)c(=O)[nH]c2cc1OC (stereo not drawn) [Example 31, 6,7-Dimethoxy-2-oxo-1,2-dihydro-quinoline-3-carboxylic acid [5-(2-amino-1-phenyl-ethylcarbamoyl)-2-methyl-phenyl]-amide] | 1920 |  | 141 |  | 
7 | COc1cc2cc(C(=O)Nc3cc(C(=O)NC(CCN)c4ccccc4)ccc3C)c(=O)[nH]c2cc1OC (stereo not drawn) [Example 35, 6,7-Dimethoxy-2-oxo-1,2-dihydro-quinoline-3-carboxylic acid [5-(3-amino-1-phenyl-propylcarbamoyl)-2-methyl-phenyl]-amide] | 2050 | 154 | 59.5 |  | 
8 | COCCOc1cc2cc(C(=O)Nc3cc(C(=O)NC(CN)c4ccccc4)ccc3C)c(=O)[nH]c2cc1OC (stereo not drawn) [Example 37, 7-Methoxy-6-(2-methoxy-ethoxy)-2-oxo-1,2-dihydro-quinoline-3-carboxylic acid [5-(2-amino-1-phenyl-ethylcarbamoyl)-2-methyl-phenyl]-amide] | 1820 | 19.1 | 32.5 |  | 
9 | COc1cc2cc(C(=O)Nc3cc(C(=O)NC(CN)c4cccc(Cl)c4)ccc3C)c(=O)[nH]c2cc1OC (stereo not drawn) [Example 50, 6,7-Dimethoxy-2-oxo-1,2-dihydro-quinoline-3-carboxylic acid {5-[2-amino-1-(3-chloro-phenyl)-ethylcarbamoyl]-2-methyl-phenyl}-amide] | 1130 |  | 73.2 |  | 
10 | COc1cc2[nH]c(=O)c(C(=O)Nc3cc(C(=O)NCc4cccc(Cl)c4)ccc3C)cc2cc1O [Example 68, 6-Hydroxy-7-methoxy-2-oxo-1,2-dihydro-quinoline-3-carboxylic acid [5-(3-chloro-benzylcarbamoyl)-2-methyl-phenyl]-amide] |  | 58 | 189 |  | 
11 | COCCOCCOc1cc2cc(C(=O)Nc3cc(C(=O)NCc4cccc(Cl)c4)ccc3C)c(=O)[nH]c2cc1OC [Example 70, 7-Methoxy-6-[2-(2-methoxy-ethoxy)-ethoxy]-2-oxo-1,2-dihydro-quinoline-3-carboxylic acid [5-(3-chloro-benzylcarbamoyl)-2-methyl-phenyl]-amide] |  | 67 | 1690 |  | 
12 | COC(=O)c1ccc(Cl)c(NC(=O)C2Cc3cc(OC)c(OC)cc3NC2=O)c1 (stereo not drawn) [Example 71, 4-Chloro-3-[(6,7-dimethoxy-2-oxo-1,2,3,4-tetrahydro-quinoline-3-carbonyl)-amino]-benzoic acid methyl ester] |  | 690 | 860 |  | 
13 | COC(=O)c1ccc(C)c(NC(=O)C2Cc3cc(OC)c(OC)cc3NC2=O)c1 (stereo not drawn) [Example 72, 3-[(6,7-Dimethoxy-2-oxo-1,2,3,4-tetrahydro-quinoline-3-carbonyl)-amino]-4-methyl-benzoic acid methyl ester] |  | 5590 | 1800 |  | 
14 | COc1cc2c(cc1OC)NC(=O)C(C(=O)Nc1cc(C(=O)NCc3ccccc3)ccc1Cl)C2 (stereo not drawn) [Example 73, 6,7-Dimethoxy-2-oxo-1,2,3,4-tetrahydro-quinoline-3-carboxylic acid (5-benzylcarbamoyl-2-chloro-phenyl)-amide] |  | 880 | 2340 |  | 
15 | COc1cc2c(cc1OC)NC(=O)C(C(=O)Nc1cc(C(=O)NCc3ccccc3)ccc1C)C2 (stereo not drawn) [Example 74, 6,7-Dimethoxy-2-oxo-1,2,3,4-tetrahydro-quinoline-3-carboxylic acid (5-benzylcarbamoyl-2-methyl-phenyl)-amide] |  |  | > 10000 | 30 | 
